Experimental data reported in ChEMBL document CHEMBL1124323, “Phenolic metabolites of clomiphene: [(E,Z)-2-[4-(1,2-diphenyl-2-chlorovinyl)phenoxy]ethyl]diethylamine. Preparation, electrophilicity, and effects in MCF 7 breast cancer cells” (J Med Chem, 1989).
pIC50: −log10 of the molar value.

Key:
MCF7S [1] = experiment: cells; details: Homo sapiens
Estrogen receptor [2] = target: T1, Estrogen receptor (Homo sapiens, UniProt Q92731+P03372); experiment: Relative binding affinity for estrogen receptor compared to estradiol; format: protein assay
[3] = target: T2, Anti-estrogen binding site (AEBS) (Homo sapiens, UniProt Q15125+Q9UBM7); experiment: Relative binding affinity for antiestrogen binding site compared to tamoxifen; format: protein-complex assay
[4] = target: T2, Anti-estrogen binding site (AEBS); experiment: Displacement of [3H]tamoxifen from antiestrogen binding site (AEBS); format: protein-complex assay
Estrogen receptor [5] = target: T1, Estrogen receptor; experiment: Displacement of [3H]-estradiol from estrogen receptor (ER); format: protein assay
MCF7S [6] = experiment: Inhibition of MCF-7 cell proliferation at 5 uM; format: functional; details: Homo sapiens

T2 sequence (Q15125 whole entry): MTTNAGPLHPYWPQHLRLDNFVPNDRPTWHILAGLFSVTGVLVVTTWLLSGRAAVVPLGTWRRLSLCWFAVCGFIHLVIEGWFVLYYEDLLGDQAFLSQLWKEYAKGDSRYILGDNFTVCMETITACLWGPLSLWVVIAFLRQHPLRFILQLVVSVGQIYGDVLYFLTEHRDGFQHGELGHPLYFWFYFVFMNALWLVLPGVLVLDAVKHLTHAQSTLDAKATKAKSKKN
T2 sequence (Q9UBM7 whole entry): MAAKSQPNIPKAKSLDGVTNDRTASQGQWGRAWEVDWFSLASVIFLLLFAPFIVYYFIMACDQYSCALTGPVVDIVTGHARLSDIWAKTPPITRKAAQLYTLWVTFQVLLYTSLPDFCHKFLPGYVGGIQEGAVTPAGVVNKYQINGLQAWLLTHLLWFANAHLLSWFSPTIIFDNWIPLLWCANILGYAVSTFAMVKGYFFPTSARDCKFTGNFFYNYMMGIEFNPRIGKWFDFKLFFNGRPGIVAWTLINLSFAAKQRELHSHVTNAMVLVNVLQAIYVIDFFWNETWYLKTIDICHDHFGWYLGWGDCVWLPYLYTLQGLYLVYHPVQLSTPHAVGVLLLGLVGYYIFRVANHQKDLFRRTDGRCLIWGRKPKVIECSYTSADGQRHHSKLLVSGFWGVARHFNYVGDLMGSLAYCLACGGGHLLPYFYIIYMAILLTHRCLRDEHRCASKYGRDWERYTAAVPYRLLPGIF

Row | Structure (SMILES) | inhibition at 5 µM (MCF7S [1]) [%] | Ratio (Estrogen receptor [2]) | Ratio [3] | pIC50 [4] | IC50 (Estrogen receptor [5]) [nM] | inhibition at 5 µM (MCF7S [6]) [%]
1 | CCN(CC)CCOc1ccc(/C(=C(/Cl)c2ccc(O)cc2)c2ccccc2)cc1 | 57 | – | – | – | – | –
2 | CCN(CC)CCOc1ccc(/C(=C(/Cl)c2ccccc2)c2ccc(O)c(OC)c2)cc1 [3'-METHOXY-4'HYDROXYCLOMIPHENE] | 76 | 0.4 | 55 | 7.66 | 780 | –
3 | CCN(CC)CCOc1ccc(C(=C(Cl)c2ccccc2)c2ccccc2)cc1 [CLOMIPHENE] | 80 | – | – | – | – | –
4 | CCN(CC)CCOc1ccc(/C(=C(/Cl)c2ccc(O)c(OC)c2)c2ccccc2)cc1 | – | – | 38 | 7.49 | 3000 | 49
